This note sets out measurements from US20250236617A1, “BICYCLIC TETRAHYDROTHIAZEPINE DERIVATIVES” (Hoffmann-La Roche Inc., priority 2022, published 2025).

The subject of experiment [1] is primary human T-cells. The experiment is described as follows: IL2 secretion measurements in CD3-stimulated T-cells. The experiment is classed as cell-based. The conditions noted are these: CD3 condition; for Emax IL2 (% activation): 24 hours, 20 μM reference compound A1 = 100%; for EC50: Homo sapiens, T-cell, IL2 secretion after 24 hours, read-out: Tcell IL2 CD3 EC50. As to the method:
As readouts for T-cell activation, 1L2 secretion after 24 hours and proliferation after 5 days was measured. Increases in 1L2 secretion and proliferation upon compound treatment were assessed as the % of the maximum of reference compound A1. WO 2016/139181 discloses reference compound A1 as example 70. As a counter screen and to make sure that no unwanted TCR-independent activation was triggered, PBS conditions were run for all compounds.
Expanded primary human T-cells were thawed and cultured in RPMI 1640 (Gibco, #61870-010)+5% human serum (HS, Sigma, #H3667)+1 mM Sodium Pyruvate (Gibco, #11360-039)+50 μM 2-mercaptoethanol (Gibco, #31350-010) and 1× Pen-Strep (Life Technologies, #15140122) medium at density of 2 Mio/ml for 3 hours in 5% CO2, 37° C. and 95% humidity. For coating of plates, […] or PBS++ with CD3 antibody (concentration depending on donor and determined by CD3 titrations) was added 100 μl/well to Poly-D Lysine coated 96-well plates. Plates were sealed and incubated at room temperature for 3 hours on a table-top rocking platform. After incubation, plates were washed once with PBS−− and filled with 40 μl/well culture medium only. Compounds were then added (see next section) to medium only plates. After 3 hours of culturing the T-cells, cells were filtered through a cell strainer (Miltenyi Biotech, #130-041-407), counted again and concentration was adjusted to 1.25 Mio/ml.
Cells were then seeded 80 μl/well to the 40 μl/well including dispensed compounds according to plate layout. By adding cells, compounds were further diluted 1:3, and resulting in 100 k cells/120 μl/well. After 24 hours 40 μl of supernatant was collected carefully from the top while not disturbing the cells and transferred into a round bottom 96 well plate. Collected and frozen supernatant was used for detection of IL2 using the IL-2 Human ProQuantum Immunoassay Kit (Invitrogen) or using the Human IL-2 ELISA Kit (Thermo Fisher).
Compounds were added in a 5 or 6 pt dose response with the Tecan D300e Digital Dispenser, all conditions 3 times more concentrated than the end-concentration, since cells are added afterwards (80 μl cells to 40 μl prepared medium with treatment). The DR was starting at 20 μM or 10 μM final top concentration and a dilution factor of 3.333. The positive control was the reference compound A1 that was added in a dose response as well, additionally to 3 wells of only 20 μM representing the positive stimulator control. All wells were normalized with DMSO to a final concentration of 0.6% (0.2% end-concentration).
The immunoassay is done following the manufacturer's manual (Invitrogen, #A35603). Additional information: For the immunoassay, MicroAmp™ EnduraPlate™ Optical 384-Well plates are used. Frozen supernatant is thawed and centrifuged for 5 minutes at 1000×g, both steps at 4° C. After centrifugation, required sample amount is taken from the top, and in a separate LightCycler V-bottom plate (working plate) diluted with assay dilution buffer, dilution factor depending on the PBS or CD3 condition but at least 1:3. IL-2 standard and blanks are prepared in the same V-bottom plate, standard with a range of […] (extended version). After preparation, 5 μl of sample dilutions or standard/blanks are transferred to the optical 384-well plate (assay plate) and the 10 μl reaction protocol is being followed. For measurement, the QuantStudio 12K Flex system is used. Raw data is extracted and IL-2 concentrations are calculated with the Thermo Fisher online app (apps.thermofisher.com/apps/proquantum).
ELISA is done following the manufacturer's manual (Thermo Fisher Scientific, #88-7025-88). Additional information: For the ELISA Nunc MaxiSorp 96 well plates are used. Frozen supernatant is thawed and centrifuged for 5 minutes at 1000×g, both steps at 4° C. […]

The test system of experiment [2] is primary human T-cells. Kind of experiment: T-cell proliferation assay (CellTiter-Glo). The class given is cell-based. As to conditions: CD3 condition; for EC50: Homo sapiens, T-cell, 120 h, proliferation after 5 days, CellTiter-Glo, read-out: Tcell Proliferation CD3 EC50; for Emax proliferation (% activation): 5 days, 20 μM reference compound A1 = 100%. As to the method:
For coating of plates, PBS++ only or PBS++ with CD3 antibody (concentration depending on donor and determined by CD3 titrations) is added 100 μl/well to Poly-D Lysine coated 96-well plates. Plates are sealed and incubated at room temperature for 3 hours on a table-top rocking platform. After incubation, plates are washed once with PBS−− and filled with 40 μl/well culture medium only. Compounds are then added (see next section) to medium only plates. After 3 hours of culturing the T-cells, cells are filtered through a cell strainer (Miltenyi Biotech, #130-041-407), counted again and concentration is adjusted to 1.25 Mio/ml.
Cells are then seeded 80 μl/well to the 40 μl/well including dispensed compounds according to plate layout. By adding cells, compounds are further diluted 1:3, and resulting in 100 k cells/120 μl/well. After 48 hours 40 μl of supernatant is collected carefully from the top while not disturbing the cells. Cells are assessed for proliferation 5 days later by measuring […] using CellTiterGlo (Promega).
Compounds were added in a 5 or 6 pt dose response with the Tecan D300e Digital Dispenser, all conditions 3 times more concentrated than the end-concentration, since cells are added afterwards (80 μl cells to 40 μl prepared medium with treatment). […] The positive control was the reference compound A1 that was added in a dose response as well, additionally to 3 wells of only 20 μM representing the positive stimulator control. All wells were normalized with DMSO to a final concentration of 0.6% (0.2% end-concentration).
After 5 days, for detection of ATP which is directly proportional to the number of cells present per well, the CellTiter-Glo® 2.0 Reagent is used. After visual control for toxicity or precipitations of the tested compounds, the plates are equilibrated to room temperature for 45 minutes. CellTiter-Glo® 2.0 Reagent is equilibrated to room temperature as well. After equilibration, an equal amount of CellTiter-Glo reagent is added to the cells (80 μl/well) with an electronic multichannel pipette. Plates are placed on a rocking platform for 15 minutes at room temperature. After incubation, the bottom of the plates is sealed with backing tape. Luminescence is measured with PHERAstar FSX (interval time 0.5 sec, gain 3000, focal height 15 mm) and exported as CSV file for analysis in Genedata screener.
Calculations and Data Reporting CD3 and PBS plates were analysed separately in Genedata Screener using Roche Normalization PCT_POS_CTRL with DMSO set as Neutral Control and 20 μM of the reference compound A1 set as Stimulator Control/100%.
For CD3 conditions EC50 and Emax of the fitted sigmoidal curve were reported. If no curve could be fitted, the EC50 was reported as blank field and the Emax was based on individual data points. […] Compounds which activate unstimulated cells (see IL2 measurements) or compounds which negatively affected viability were flagged.
(In general: ATP-based viability assays read luminescence as a measure of living cells.)

Take `CC(C)Oc1cc(-c2cc3c(cc2F)S(=O)(=O)C[C@H](N)C(=O)N3Cc2ccc(Cl)cc2)cnn1` [Example 7, (3R)-3-amino-5-[(4-chlorophenyl)methyl]-8-fluoro-7-(6-isopropoxypyridazin-4-yl)-1,1-dioxo-2,3-dihydro-1λ6,5-benzothiazepin-4-one]: in the experiment with primary human T-cells [1], the “Emax IL2 (% activation)” value is given as 49 % activation and the EC50 was 3.2 µM. Besides, in the experiment on primary human T-cells [2], the EC50 turned out to be 0.172 µM.
Consider `CC(C)(C)c1cncc(-c2cc3c(cc2F)S(=O)(=O)C[C@H](N)C(=O)N3Cc2ccc(-c3noc(C(F)(F)F)n3)cc2)c1` [Example 22, (3R)-3-amino-7-(5-tert-butyl-3-pyridyl)-8-fluoro-1,1-diketo-5-[4-[5-(trifluoromethyl)-1,2,4-oxadiazol-3-yl]benzyl]-2,3-dihydro-1λ6,5-benzothiazepin-4-one], for which, in the experiment on primary human T-cells [1], the “Emax IL2 (% activation)” value is recorded as 458 % activation and the EC50 turned out to be 0.811 µM. In the experiment with primary human T-cells [2], the “Emax proliferation (% activation)” value is 228 % activation and the EC50 was 0.092 µM.
For `CC(C)(C)c1cnc(-c2cc3c(cc2F)S(=O)(=O)C[C@H](N)C(=O)N3Cc2ccc(Cl)cc2)nn1` [Example 12, (3R)-3-amino-7-(6-tert-butyl-1,2,4-triazin-3-yl)-5-[(4-chlorophenyl)methyl]-8-fluoro-1,1-dioxo-2,3-dihydro-1λ6,5-benzothiazepin-4-one], the “Emax IL2 (% activation)” value in the experiment with primary human T-cells [1] was 77 % activation. Further, the EC50 was 2.78 µM with primary human T-cells [1] and 1.67 µM in the experiment on primary human T-cells [2].
For the compound `N[C@H]1CS(=O)(=O)c2cc(F)c(-c3cc(C(F)(F)F)ccn3)cc2N(Cc2ccc(Cl)cc2)C1=O` [Example 8, (3R)-3-amino-5-[(4-chlorophenyl)methyl]-8-fluoro-1,1-dioxo-7-[4-(trifluoromethyl)-2-pyridyl]-2,3-dihydro-1λ6,5-benzothiazepin-4-one], in the experiment with primary human T-cells [1], the “Emax IL2 (% activation)” value was 37 % activation and the EC50 was over 20 µM. Also, in the experiment with primary human T-cells [2], the “Emax proliferation (% activation)” value is 100 % activation and the EC50 was 1.31 µM.
For the compound `CS(=O)(=O)C1(c2cnnc(-c3cc4c(cc3F)S(=O)(=O)C[C@H](N)C(=O)N4Cc3ccc(Cl)cc3)n2)CC1` [Example 19, (3R)-3-amino-5-[(4-chlorophenyl)methyl]-8-fluoro-7-[5-(1-methylsulfonylcyclopropyl)-1,2,4-triazin-3-yl]-1,1-dioxo-2,3-dihydro-1λ6,5-benzothiazepin-4-one], in the experiment with primary human T-cells [1], the “Emax IL2 (% activation)” value was 45 % activation and the EC50 was 5.71 µM. For the same compound, the EC50 in the experiment on primary human T-cells [2] was 2.09 µM.
In the same order, the values of `CC(C)Oc1ccc(CN2C(=O)[C@@H](N)CS(=O)(=O)c3cc(F)c(-c4nncc(C(C)(C)C)n4)cc32)cc1` [Example 14, (3R)-3-amino-7-(5-tert-butyl-1,2,4-triazin-3-yl)-8-fluoro-5-[(4-isopropoxyphenyl)methyl]-1,1-dioxo-2,3-dihydro-1λ6,5-benzothiazepin-4-one] are 73 % activation, 1.63 µM and 0.254 µM.
Take `N[C@H]1CS(=O)(=O)c2cc(F)c(-c3cnnc(C4(C(F)(F)F)CC4)c3)cc2N(Cc2ccc(-c3noc(C(F)(F)F)n3)cc2)C1=O` [Example 37, (3R)-3-amino-8-fluoro-1,1-dioxo-7-[6-[1-(trifluoromethyl)cyclopropyl]pyridazin-4-yl]-5-[[4-[5-(trifluoromethyl)-1,2,4-oxadiazol-3-yl]phenyl]methyl]-2,3-dihydro-1λ6,5-benzothiazepin-4-one]: in the experiment on primary human T-cells [2], the “Emax proliferation (% activation)” value came out at 147 % activation and the EC50 stood at 0.729 µM.
Regarding `N[C@H]1CS(=O)(=O)c2cc(F)c(-c3cccc(C(F)(F)F)n3)cc2N(Cc2ccc(Cl)cc2)C1=O` [Example 9, (3R)-3-amino-5-[(4-chlorophenyl)methyl]-8-fluoro-1,1-dioxo-7-[6-(trifluoromethyl)-2-pyridyl]-2,3-dihydro-1λ6,5-benzothiazepin-4-one], in the experiment with primary human T-cells [2], the “Emax proliferation (% activation)” value amounted to 76 % activation and the EC50 worked out at 6.69 µM.
